Data set [1] is described as follows: Pharmacokinetic study, single oral dose in beagle dog. The data set is classed as in vivo. To be noted: serum, single oral dose 5 mg/kg p.o., Compound No. 4 and linezolid in 5% Tween, other compounds in cyclodextrin; for AUC(0-t): read-out: AUC (0-24 hr); for concentration at 12 hr: read-out: C-12 hr. The procedure:
Oral (5 mg/kg) and intravenous (5 mg/kg bolus) pharmacokinetic studies were done in dog. Blood samples were collected at time points of 0, 0.08 (not for oral), 0.25, 0.50, 1.0, 1.5, 2.0, 3.0, 4.0, 5.0, 6.0, 8.0, 10.0, 12.0 and 24.0 hours. To facilitate i.v. dosing and collection of blood samples, the dogs were implanted with cannula in cephalic vein. Serum obtained from blood samples was used for HPLC-based analysis.
Serum samples were extracted by solid phase extraction technique using Water's OASIS HLB cartridges. An HPLC-Diode array detection system was used for analysis. Prepared samples were chromatographed on a YMC-AM reversed phase column (150×4.6 mm ID; 5 μm) using an isocratic mobile phase acetate buffer (50 mmol ammonium acetate pH 6.6) acetonitrile, 66:34% v/v (for a representative compound of the invention, 68:32% v/v for compound Nos. 30, 3, 7 and 11 of U.S. Pat. No. 5,668,286, and 75:25% v/v for linezolid) at a flow rate of 1 ml/min, measured at λmax 254 nm. Independently prepared analytical standards and quality control samples were analyzed with each set of unknown samples.
The pharmacokinetics of a representative compound of the invention following single oral dose administration of the compound in beagle dog is shown in Table 2.

Data set [2] concerns Methicillin Resistant Staphylococcus aureus MRSA-32. Put plainly: In-vitro MIC test (agar dilution), MRSA-32. The data set is classed as cell-based. To be noted: Staphylococcus aureus, MRSA; Mueller Hinton agar, 24 hrs at 35° C.; read-out: Minimum Inhibitory Concentrations (MIC) MRSA-32. An excerpt:
The test methods used for verifying the antimicrobial action of compound within the scope of this invention are essentially the same as those described in PCT WO 95/25106, U.S. Pat. No. 5,668,286 and EP 0 750, 618 B1, with the difference that the strains of the organisms used for the MIC determinations in these patents and applications are Staphylococcus aureus ATCC 25923, Staphylococcus epidermidis ATCC 12828, Streptococcus pyogenes ATCC 19615.
The in-vitro MIC methods of test compounds were determined essentially as described in PCT WO 95/25106, U.S. Pat. No. 5,668,286 and EP 0 750 618 B1.
Overnight grown cultures of S. aureus organisms in Tryptic Soya broth were diluted in Mueller Hinton Broth to give optical density matching with MacFarland tube 0.5 standard. Cultures were further diluted 1:10 in Mueller Hinton broth. Using Denley's mutipoint inoculator, 10^4 cells were deposited on Mueller Hinton agar (Difco) containing range of 2 fold dilutions of test compounds. These plates were incubated for 24 hrs at 35° C. and MIC results recorded. MIC is defined as minimum drug concentration that inhibits test organisms. For determining MIC of test compounds against Streptococcus pneumoniae, Mueller Hinton agar containing 5% sheep blood was employed.
Background: In agar dilution the substance is mixed into plates at graded concentrations.

The test system of data set [3] is reticulocytes. Nature of the data set: Myelosuppressive potential: reticulocyte counts, 14-day oral dosing. In kind it is in vivo, Wistar rats. The procedure:
A group of 6 Wistar rats (3 male and 3 female) was exposed to a representative compound of the invention viz. compound No. 4 of the invention, by oral route at a single dose of 50 mg/kg per day for 14 consecutive days. Compound No.30 of U.S. Pat. No. 5,668,286 was also subjected to the same protocol. Linezolid (LNZ) was used as a comparator drug and was administered to rats (by oral route at a dose of 2×25 mg/kg per day for 14 consecutive days. Vehicle treated controls were maintained using identical experimental conditions. The treated as well as control rats were sacrificed 24 hr after the last dose.
A second parameter measured was the change in reticulocyte count, for which the following method was used.
Blood was collected on day 15 (24 hours after the last dose administration) from all the treated as well as control rats by retro-orbital sinus puncture using clean glass rat capillary tubes. […]
3 slides/animal were prepared according to NCCLS staining procedure for reticulocyte staining and counting. […] The percentage presence of reticulocyte was determined in 1000 erythrocytes and was expressed in terms of percentage of reticulocytes over erythrocytes. […]
Values in each of the first two columns above represent ratio of relative weight (calculated organ to body weight ratio) of spleen or thymus in drug treated animals v/s control animals. […]

Converted amounts (≈) assume the structure as drawn.

The half-life is the time in which the quantity being followed falls by half. A lower half-life goes with fast loss. The term Cmax denotes the maximum level reached in the sampled fluid or tissue.

For the compound `CC(=O)NC[C@H]1CN(c2ccc(N3CCC(CC#N)CC3)c(F)c2)C(=O)O1` [Compound 4, (S)-N-{3-[4-(4-cyanomethyl-piperidin-1-yl)-3-fluoro-phenyl]-2-oxo-oxazolidin-5-ylmethyl}-acetamide], in data set [1], the half-life was 10.8 ± 2.45 h, the AUC(0-t) was determined as 71560 ± 250 ng·h/mL, the concentration peaked (Cmax) at 5660 ± 1490 ng/mL and the concentration at 12 hr was determined as 2840 ± 170 ng/mL. The MIC in data set [2] is 2 µg/mL (≈ 5.34 µM). Also, the “change in ratio of percentage reticulocytes of treated animal versus control animal (in words)” value in data set [3] (rat, in vivo, po) is “no significant change”.
`CC(=O)NC[C@H]1CN(c2ccc(N3CCOCC3)c(F)c2)C(=O)O1` [Linezolid]: in data set [1], the half-life is 2.42 ± 0.17 h, the AUC(0-t) was 22800 ± 2170 ng·h/mL, the Cmax came to 5700 ± 690 ng/mL and the concentration at 12 hr worked out at 0 ng/mL. Moreover, in data set [2], the MIC turned out to be 2 µg/mL (≈ 5.93 µM). Moreover, the “Ratio of % reticulocytes Retics (treated animal versus control animal)” value in data set [3] (Wistar rats, oral, 14 consecutive days, 50 mg/kg per day (LNZ 2×25 mg/kg per day), blood on day 15, ratio less than 0.75 indicates myelosuppressive potential) stood at 0.43.

The values above are taken from patent publication US20040235900A1, “Antimicrobial oxazolifinones with improved pharmacokinetic profile and safety advantages” (priority 2002, published 2004).
